Target: T1, CYP11A1 (Homo sapiens, UniProt P05108)
T1 construct: endogenous in cells; host or cells: NCI-H295R
T1 sequence (P05108 40-521): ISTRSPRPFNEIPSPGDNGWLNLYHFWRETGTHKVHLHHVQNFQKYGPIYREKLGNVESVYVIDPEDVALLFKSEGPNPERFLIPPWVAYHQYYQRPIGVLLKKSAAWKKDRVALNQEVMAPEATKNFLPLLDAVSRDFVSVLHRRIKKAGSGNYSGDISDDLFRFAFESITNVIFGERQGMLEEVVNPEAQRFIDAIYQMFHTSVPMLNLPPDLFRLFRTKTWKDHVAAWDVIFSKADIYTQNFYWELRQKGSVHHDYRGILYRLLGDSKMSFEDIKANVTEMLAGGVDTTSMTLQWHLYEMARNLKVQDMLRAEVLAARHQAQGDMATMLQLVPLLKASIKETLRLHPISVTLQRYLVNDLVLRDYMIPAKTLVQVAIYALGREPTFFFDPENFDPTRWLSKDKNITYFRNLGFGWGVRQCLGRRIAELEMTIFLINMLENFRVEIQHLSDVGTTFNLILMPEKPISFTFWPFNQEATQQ
Experiment: CYP11A1 inhibition: pregnenolone biosynthesis measured by ELISA in NCI-H295R cells
Type: cell-based
Conditions: NCI-H295R cells treated for 24 hours, 10 concentrations in duplicates, read-out: IC50 on CYP11A1 inhibition (Group)
Description: The ability of the test compounds to inhibit pregnenolone biosynthesis was measured by enzyme-linked immunosorbent assay (ELISA) detecting pregnenolone (Abnova Pregnenolone ELISA Kit, KA1912). […] To determine the half maximal inhibitory concentration (IC50) of the test compounds on CYP11A1 inhibition, the cells were treated for 24 hours with increasing concentrations of the test compound. The final DMSO concentration was 0.4%. Medium samples were diluted 1:6 and pregnenolone amounts determined with ELISA. Manufacturer's recommended protocols were used and pregnenolone (Sigma-Aldrich, P9129) standards were prepared in cell culture medium. Absorbance (A450) was measured with Envision plate reader (PerkinElmer). All the test compounds were studied at 10 concentrations in duplicates.

SMILES | IC50
Cc1cn(-c2cncc(C(=O)N3CCCc4ccccc43)c2)cn1 [Compound 82, (3,4-Dihydroquinolin-1(2H)-yl)(5-(4-methyl-1H-imidazol-1-yl)pyridin-3-yl)-methanone] | 201 to 2500 nM
Cc1c(C(=O)N2CCOc3ccccc32)cncc1-c1ccc(F)cc1 [Compound 5, (2,3-Dihydro-4H-benzo[b][1,4]oxazin-4-yl)(5-(4-fluorophenyl)-4-methylpyridin-3-yl)methanone] | < 50 nM
CC1CCc2ccccc2N1C(=O)c1cnnc(-c2ccc(F)cc2)c1 (stereo not drawn) [Compound 64, (6-(4-Fluorophenyl)pyridazin-4-yl)(2-methyl-3,4-dihydroquinolin-1(2H)-yl)-methanone] | 201 to 2500 nM
O=C(c1cncc(Cc2ccccc2)n1)N1CCCc2ccccc21 [Compound 85, (6-Benzylpyrazin-2-yl)(3,4-dihydroquinolin-1(2H)-yl)methanone] | 201 to 2500 nM
O=C(c1cnnc(-c2ccccc2)c1)N1CCCc2ccccc21 [Compound 52, (3,4-Dihydroquinolin-1(2H)-yl)(6-phenylpyridazin-4-yl)methanone] | 51 to 200 nM
O=C(c1cncc(N2CC(F)(F)C2)n1)N1CCOc2ccccc21 [Compound 77, (6-(3,3-Difluoroazetidin-1-yl)pyrazin-2-yl)(2,3-dihydro-4H-benzo[b][1,4]oxazin-4-yl)methanone] | 201 to 2500 nM
O=C(c1cnnc(-c2ccc(F)cc2)c1)N1CCOc2ccccc21 [Compound 40, (2,3-Dihydro-4H-benzo[b][1,4]oxazin-4-yl)(6-(4-fluorophenyl)pyridazin-4-yl)-methanone] | < 50 nM
O=C(c1cncc(-c2ccc(F)cc2)n1)N1CCOc2ccccc21 [Compound 20, (2,3-Dihydro-4H-benzo[b][1,4]oxazin-4-yl)(6-(4-fluorophenyl)pyrazin-2-yl)-methanone] | < 50 nM
c1ccc(-c2cncc(CN3CCOc4ccccc43)c2)cc1 [Compound 81, 4-((5-Phenylpyridin-3-yl)methyl)-3,4-dihydro-2H-benzo[b][1,4]oxazine] | 201 to 2500 nM
O=C(c1cc(-c2ccc(F)cc2)cnn1)N1CCOc2ccccc21 [Compound 7, (2,3-Dihydro-4H-benzo[b][1,4]oxazin-4-yl)(5-(4-fluorophenyl)pyridazin-3-yl)-methanone] | 201 to 2500 nM
COc1cccc2c1CCCN2C(=O)c1cncc(-c2ccccc2)c1 [Compound 59, (5-Methoxy-3,4-dihydroquinolin-1(2H)-yl)(5-phenylpyridin-3-yl)methanone] | 201 to 2500 nM
O=C(c1cncc(-c2ccc3ncoc3c2)n1)N1CCOc2ccccc21 [Compound 8, (6-(Benzo[d]oxazol-6-yl)pyrazin-2-yl)(2,3-dihydro-4H-benzo[b][1,4]oxazin-4-yl)methanone] | < 50 nM
O=S(=O)(c1cncc(-c2ccc(F)cc2)c1)N1CCCc2ccccc21 [Compound 47, 1-((5-(4-Fluorophenyl)pyridin-3-yl)sulfonyl)-1,2,3,4-tetrahydroquinoline] | 51 to 200 nM
CC1CCc2ccccc2N1C(=O)c1cncc(-c2ccc(F)cc2)n1 (stereo not drawn) [Compound 22, (6-(4-Fluorophenyl)pyrazin-2-yl)(2-methyl-3,4-dihydroquinolin-1(2H)-yl)-methanone] | < 50 nM
O=C(c1cncc(-c2ccccc2)n1)N1CCCc2ncccc21 [Compound 37, (3,4-Dihydro-1,5-naphthyridin-1(2H)-yl)(6-phenylpyrazin-2-yl)methanone] | < 50 nM
O=C(c1cncc(-c2ccccc2)n1)N1CCCc2ccccc21 [Compound 15, (3,4-Dihydroquinolin-1(2H)-yl)(6-phenylpyrazin-2-yl)methanone] | < 50 nM
O=C(Cc1cncc(-c2ccc(F)cc2)c1)N1CCCc2ccccc21 [Compound 79, 1-(3,4-Dihydroquinolin-1(2H)-yl)-2-(5-(4-fluorophenyl)pyridin-3-yl)ethan-1-one] | 201 to 2500 nM
Fc1ccc(-c2cncc(CN3CCOc4ccccc43)c2)cc1 [Compound 91] | 201 to 2500 nM
COc1ccc(-c2cncc(C(=O)N3CCCc4ccccc43)n2)cc1 [Compound 14, (3,4-Dihydroquinolin-1(2H)-yl)(6-(4-methoxyphenyl)pyrazin-2-yl)methanone] | < 50 nM

Further lines, results first:

IC50 | SMILES
201 to 2500 nM | O=C(c1cncc(-c2ccc3c(c2)OCC3)c1)N1CCOC2CCCCC21 (stereo not drawn) [Compound 72, (5-(2,3-Dihydrobenzofuran-6-yl)pyridin-3-yl)(octahydro-4H-benzo[b][1,4]-oxazin-4-yl)methanone]
201 to 2500 nM | O=C(c1cncc(-c2cccc(OC(F)(F)F)c2)c1)N1CCOc2ccccc21 [Compound 1, (2,3-Dihydro-4H-benzo[b][1,4]oxazin-4-yl)(5-(3-(trifluoromethoxy)phenyl)-pyridin-3-yl)methanone]
201 to 2500 nM | Cn1cc(-c2cncc(C(=O)N3CCOc4ccccc43)c2)cn1 [Compound 73, (2,3-Dihydro-4H-benzo[b][1,4]oxazin-4-yl)(5-(1-methyl-1H-pyrazol-4-yl)-pyridin-3-yl)methanone]
< 50 nM | O=C(c1cncc(-c2ccc(F)cc2)c1)N1CCOc2ccccc21 [Compound 24, (2,3-Dihydro-4H-benzo[b][1,4]oxazin-4-yl)(5-(4-fluorophenyl)pyridin-3-yl)-methanone]
201 to 2500 nM | O=C(c1cncc(-c2ccncc2)c1)N1CCCc2ccccc21 [Compound 62, [3,4′-Bipyridin]-5-yl(3,4-dihydroquinolin-1(2H)-yl)methanone]
51 to 200 nM | O=C(c1cncc(-c2ccc(CO)cc2)c1)N1CCCc2ccccc21 [Compound 54, (3,4-Dihydroquinolin-1(2H)-yl)(5-(4-(hydroxymethyl)phenyl)pyridin-3-yl)-methanone]
51 to 200 nM | COc1cccc(-c2cncc(C(=O)N3CCOc4ccccc43)c2)c1 [Compound 50, (2,3-Dihydro-4H-benzo[b][1,4]oxazin-4-yl)(5-(3-methoxyphenyl)pyridin-3-yl)-methanone]
< 50 nM | O=C(c1cncc(-c2ccc(F)cc2)c1)N1CCCc2ccccc21 [Compound 16, (3,4-Dihydroquinolin-1(2H)-yl)(5-(4-fluorophenyl)pyridin-3-yl)methanone]
< 50 nM | COc1ccc(-c2cncc(C(=O)N3CCOc4ccccc43)c2)cc1 [Compound 23, (2,3-Dihydro-4H-benzo[b][1,4]oxazin-4-yl)(5-(4-methoxyphenyl)pyridin-3-yl)-methanone]
201 to 2500 nM | O=C(c1cncc(-c2ccccc2)c1)N1CCCc2ncccc21 [Compound 61, (3,4-Dihydro-1,5-naphthyridin-1(2H)-yl)(5-phenylpyridin-3-yl)methanone]
< 50 nM | O=C(c1cncc(-c2ccc3c(c2)OCC3)n1)N1CCCc2ccccc21 [Compound 12, (6-(2,3-Dihydrobenzofuran-6-yl)pyrazin-2-yl)(3,4-dihydroquinolin-1(2H)-yl)-methanone]
201 to 2500 nM | O=C(c1cncc(C2=CCOCC2)c1)N1CCOc2ccccc21 [Compound 66, (5-(3,6-Dihydro-2H-pyran-4-yl)pyridin-3-yl)(2,3-dihydro-4H-benzo[b][1,4]-oxazin-4-yl)methanone]
201 to 2500 nM | O=C(c1cncc(-c2cccnc2)c1)N1CCCc2ccccc21 [Compound 70, [3,3′-Bipyridin]-5-yl(3,4-dihydroquinolin-1(2H)-yl)methanone]
201 to 2500 nM | COC(=O)c1ccc2c(c1)CCCN2C(=O)c1cncc(-c2ccccc2)c1 [Compound 67, Methyl 1-(5-phenylnicotinoyl)-1,2,3,4-tetrahydroquinoline-6-carboxylate]
